Broadly, the IC50 is the concentration needed to halve the response being measured.

We go through 23 compounds from US20250034164A1, “NOVEL COMPOUND AND COMPOSITION FOR PREVENTING OR TREATING NEUROINFLAMMATORY BRAIN DISEASES COMPRISING SAME AS ACTIVE INGREDIENT” (KOREA INSTITUTE OF OCEAN SCIENCE & TECHNOLOGY, priority 2021, published 2025).

The first experiment relates to nitric oxide (NO) produced in mouse BV-2 microglia cells stimulated with LPS. In words: NO production inhibition in LPS-stimulated BV-2 microglia cells (Griess reagent). As to conditions: BV-2 cells, LPS 200 ng/ml, treated at 2.5 to 20 PM (FIG. 37A). The format is cell-based. On the procedure:
BV-2 microglia cells were cultured in a humidified 5% CO2 incubator at 37° C. using a Dulbecco's modified Eagle medium supplemented with 5% fetal bovine serum and 1% penicillin/streptomycin at 100 units/mL.
In all experiments, the number of cells was 2.5×10^5 cell/ml, the cells were first treated with each of Compounds of Examples 1 to 25 by concentration (2.5 to 200 μg/ml), and LPS was diluted in medium and used at a concentration of 200 ng/ml. A cytotoxicity test was performed using MTT assay, and the MTT assay was performed by performing NO assay and injecting 30 μl of MTT at a concentration of 0.5 mg/ml into the cells in a microplate. After reacting for 2 hours in the incubator, formazan crystals were dissolved in 100 μl of DMSO, and the absorbance was measured using a Vmax microplate reader (Tencan Co., Switzerland) with a wavelength of 540 nm. In order to quantitatively measure the production of nitric oxide (NO), mouse BV-2 microglia cells were prepared in a microplate (96 well), and added with LPS (200 ng/ml) and Compounds by concentration (2.5 to 200 μg/ml). The cells reacted in an incubator for 24 h, and 50 μl of the supernatant reacted with a Griess reagent (a mixed solution of 1% sulfanilamide, 0.1% N-(1-naphthyl)-ethylenediamine dihydrochloride, and 2.5% H3PO4), and then the absorbance was measured using a Vmax 96-well microplate spectrophotometer with a wavelength of 550 nm.
In order to analyze the anti-inflammatory efficacy of Compound of Example 1, the concentration inhibitory effect of nitric oxide (NO) produced in mouse BV-2 microglia cells stimulated with LPS (200 ng/ml), a neuroinflammatory factor, was confirmed.
The neuroinflammation inhibitory effects of Compounds of Examples 2 to 25 were confirmed.
In order to analyze the anti-inflammatory efficacy of Compound 26 of Chemical Formula 2, the concentration inhibitory effect of nitric oxide (NO) produced in mouse BV-2 microglia cells stimulated with LPS (200 ng/ml), a neuroinflammatory factor, was confirmed. Compound 26 of Chemical Formula 2 was purchased from Santa Cruz biotechnology (CAS 79127-35-8) and the experiment was performed. As a result of treating Compound of Chemical Formula 2 at […], it was confirmed that the amount of nitric oxide (NO) was reduced, as shown in FIG. 37A.
On the technique in general: Nitrite, measured by Griess reagent, commonly stands in for NO production.
For `NC(=O)C1=C[C@H]2[C@@H]3C=CC2(O)C(=O)O[C@@H]3O1` (stereo in doubt) [Compound 26, (1S,4aS,5R,7aS)-5-hydroxy-8-oxo-1,4a,5,7a-tetrahydro-1,5-(epoxymethano)cyclopenta[c]pyran-3-carboxamide], the “amount of nitric oxide (NO)” value was “reduced”.

The same experiment, now with this note: mouse BV-2 microglia cells, LPS 200 ng/ml, 24 h; read-out: NO inhibitory activity (IC50 value).
As for `CC(=O)OCC1=C[C@H]2[C@@H]3C=C[C@H]2C(=O)O[C@@H]3O1` [Compound 2, ((1S,4aS,5R,7aS)-8-oxo-1,4a,5,7a-tetrahydro-1,5-(epoxymethano)cyclopenta[c]pyran-3-yl)methyl acetate], the IC50 was over 20 µM. Regarding `COCC1=C[C@H]2[C@@H]3C=C[C@H]2C(=O)O[C@@H]3O1` [Compound 3, (1S,4aS,5R,7aS)-3-(methoxymethyl)-1,4a,5,7a-tetrahydro-1,5-(epoxymethano)cyclopenta[c]pyran-8-one], the IC50 was over 20 µM. For the compound `O=C(O)C1=C[C@H]2[C@@H]3C=C[C@H]2C(=O)O[C@@H]3O1` [Compound 5, (1S,4aS,5R,7aS)-8-oxo-1,4a,5,7a-tetrahydro-1,5-(epoxymethano)cyclopenta[c]pyran-3-carboxylic acid], the half-maximal inhibitory concentration (IC50) was over 20 µM. For `O=C(OCC1=C[C@H]2[C@@H]3C=C[C@H]2C(=O)O[C@@H]3O1)c1ccccc1` [Compound 7, ((1S,4aS,5R,7aS)-8-oxo-1,4a,5,7a-tetrahydro-1,5-(epoxymethano)cyclopenta[c]pyran-3-yl)methyl benzoate], the IC50 was over 20 µM. For the compound `C=CCCCCCCCCC(=O)OCC1=C[C@H]2[C@@H]3C=C[C@H]2C(=O)O[C@@H]3O1` [Compound 8, ((1S,4aS,5R,7aS)-8-oxo-1,4a,5,7a-tetrahydro-1,5-(epoxymethano)cyclopenta[c]pyran-3-yl)methylundec-10-enoate], the IC50 was over 20 µM. The same measure, in the same setting: then `CCC(C)C(=O)OCC1=C[C@H]2[C@@H]3C=C[C@H]2C(=O)O[C@@H]3O1` (stereo partly drawn) [Compound 9, ((1S,4aS,5R,7aS)-8-oxo-1,4a,5,7a-tetrahydro-1,5-(epoxymethano)cyclopenta[c]pyran-3-yl)methyl 2-methyl butanoate], with over 20 µM; and `Cc1ccc(C(=O)OCC2=C[C@H]3[C@@H]4C=C[C@H]3C(=O)O[C@@H]4O2)cc1` [Compound 10, ((1S,4aS,5R,7aS)-8-oxo-1,4a,5,7a-tetrahydro-1,5-(epoxymethano)cyclopenta[c]pyran-3-yl)methyl 4-methyl benzoate], with over 20 µM.

For the compound `COc1ccc(C(=O)OCC2=C[C@H]3[C@@H]4C=C[C@H]3C(=O)O[C@@H]4O2)cc1` [Compound 11, ((1S,4aS,5R,7aS)-8-oxo-1,4a,5,7a-tetrahydro-1,5-(epoxymethano)cyclopenta[c]pyran-3-yl)methyl 4-methoxybenzoate], the IC50 was over 20 µM. The same measure, in the same setting: then `O=C(OCC1=C[C@H]2[C@@H]3C=C[C@H]2C(=O)O[C@@H]3O1)c1ccc(-c2ccccc2)cc1` [Compound 12, ((1S,4aS,5R,7aS)-8-oxo-1,4a,5,7a-tetrahydro-1,5-(epoxymethano)cyclopenta[c]pyran-3-yl)methyl [1,1′-biphenyl]-4-carboxylate], with over 20 µM; and `O=C(OCC1=C[C@H]2[C@@H]3C=C[C@H]2C(=O)O[C@@H]3O1)c1ccc2ccccc2c1` [Compound 13, ((1S,4aS,5R,7aS)-8-oxo-1,4a,5,7a-tetrahydro-1,5-(epoxymethano)cyclopenta[c]pyran-3-yl)methyl 2-naphthoate], with over 20 µM. For `C#CC(=O)OCC1=C[C@H]2[C@@H]3C=C[C@H]2C(=O)O[C@@H]3O1` [Compound 14, ((1S,4aS,5R,7aS)-8-oxo-1,4a,5,7a-tetrahydro-1,5-(epoxymethano)cyclopenta[c]pyran-3-yl)methyl propiolate], the IC50 worked out at 1.4 µM. The same measure, in the same setting: under `C#CC/N=C/C1=C[C@H]2[C@@H]3C=C[C@H]2C(=O)O[C@@H]3O1` [Compound 15, (1S,4aS,5R,7aS)-3-((E)-(prop-2-yn-1-ylimino)methyl)-1,4a,5,7a-tetrahydro-1,5-(epoxymethano)cyclopenta[c]pyran-8-one] stands 12.4 µM; under `O=C(OCC1=C[C@H]2[C@@H]3C=C[C@H]2C(=O)O[C@@H]3O1)c1cccc2c1-c1ccccc1C2=O` [Compound 16, ((1S,4aS,5R,7aS)-8-oxo-1,4a,5,7a-tetrahydro-1,5-(epoxymethano)cyclopenta[c]pyran-3-yl)methyl 9-oxo-9H-fluorene-4-carboxylate], 3.8 µM.

For the compound `O=C(OCC1=C[C@H]2[C@@H]3C=C[C@H]2C(=O)O[C@@H]3O1)c1cc2ccccc2o1` [Compound 17, ((1S,4aS,5R,7aS)-8-oxo-1,4a,5,7a-tetrahydro-1,5-(epoxymethano)cyclopenta[c]pyran-3-yl)methyl benzofuran-2-carboxylate], the IC50 is over 20 µM. For the compound `O=C(OCC1=C[C@H]2[C@@H]3C=C[C@H]2C(=O)O[C@@H]3O1)c1ccc(F)cc1` [Compound 18, ((1S,4aS,5R,7aS)-8-oxo-1,4a,5,7a-tetrahydro-1,5-(epoxymethano)cyclopenta[c]pyran-3-yl)methyl 4-fluorobenzoate], the IC50 was over 20 µM. Regarding `O=C(OCC1=C[C@H]2[C@@H]3C=C[C@H]2C(=O)O[C@@H]3O1)c1ccc(Cl)cc1` [Compound 19, ((1S,4aS,5R,7aS)-8-oxo-1,4a,5,7a-tetrahydro-1,5-(epoxymethano)cyclopenta[c]pyran-3-yl)methyl 4-chlorobenzoate], the IC50 worked out at 14.5 µM. Consider `O=C(OCC1=C[C@H]2[C@@H]3C=C[C@H]2C(=O)O[C@@H]3O1)c1ccc(I)cc1` [Compound 20, ((1S,4aS,5R,7aS)-8-oxo-1,4a,5,7a-tetrahydro-1,5-(epoxymethano)cyclopenta[c]pyran-3-yl)methyl 4-iodobenzoate], for which the IC50 is over 20 µM. On the same count and under the same terms, then `O=C(OCC1=C[C@H]2[C@@H]3C=C[C@H]2C(=O)O[C@@H]3O1)c1ccc([N+](=O)[O-])cc1` [Compound 21, ((1S,4aS,5R,7aS)-8-oxo-1,4a,5,7a-tetrahydro-1,5-(epoxymethano)cyclopenta[c]pyran-3-yl)methyl 4-nitrobenzoate], with over 20 µM; and `O=C1O[C@@H]2OC(CI)=C[C@H]3[C@@H]2C=C[C@@H]13` [Compound 22, (1S,4aS,5R,7aS)-3-(iodomethyl)-1,4a,5,7a-tetrahydro-1,5-(epoxymethano)cyclopenta[c]pyran-8-one], with over 20 µM. In the case of `O=C1O[C@@H]2OC(CBr)=C[C@H]3[C@@H]2C=C[C@@H]13` [Compound 23, (1S,4aS,5R,7aS)-3-(bromomethyl)-1,4a,5,7a-tetrahydro-1,5-(epoxymethano)cyclopenta[c]pyran-8-one], the IC50 is over 20 µM.

For the compound `O=C1O[C@@H]2OC(CO)=C(Br)[C@H]3[C@@H]2C=C[C@@H]13` [Compound 24, (1S,4aS,5R,7aS)-4-bromo-3-(hydroxymethyl)-1,4a,5,7a-tetrahydro-1,5-(epoxymethano)cyclopenta[c]pyran-8-one], the IC50 was under 20 µM.

For `O=C1O[C@@H]2OC(CCl)=C[C@H]3[C@@H]2C=C[C@@H]13` [Compound 25, (1S,4aS,5R,7aS)-3-(chloromethyl)-1,4a,5,7a-tetrahydro-1,5-(epoxymethano)cyclopenta[c]pyran-8-one], the IC50 was over 20 µM.
